Results as given in patent publication US4238491A (priority 1977, dated 1980).
Like-named read-outs stand apart in the source and are kept apart here.

What was measured:
[1] = tested on: spontaneous motor activity; assay: Effect on spontaneous motor activity; format: in vivo, mouse (dd-strain); settings: 25 mg/kg oral
Procedure: 25 mg/kg of MR were administered to the mice. After 15 minutes of letting them alone, spontaneous motor activity over 6 hours was measured hourly with an "Animex" made by AB Farad.

[2] = Excretion into bile after venous injection; format: in vivo; settings: rabbit, iv, within 6 hours, of amount administered
Procedure: From the Figure it is recognized that an amount as small as 0.3 to 0.5% of the administered MR is discharged into bile within 6 hours after administration.

[3] = Change of MR content in blood (serum level); format: in vivo, dogs, rabbits and rats
Procedure: In case of oral administration, the animals were not permitted to eat for 24 hours, except for the experiment of biotransformation.

[4] = tested on: blood pressure of SHR; assay: Antihypertensive effect by single administration, SHR, direct cannulation; format: in vivo, rat (spontaneously hypertensive rats; settings: for average rate of decrease in blood pressure: over 6 hours; for blood pressure decrease: 6 hours after; for ED (20% blood pressure decrease): Rattus norvegicus, read-out: DB20 (20% blood pressure descending dose)
Procedure: (§1) The effect was examined through both direct and modified tail-cuff methods using male SHRs aged 25 to 30 weeks and weighing about 300 g.
In the direct cannulation method, polyethylene cannules were inserted in femoral arteries of the conscious unanesthesized SHRs under back-fixation,and MR solution was administered in an amount of 0.1 mg/100 g of weight for venous injection, and 1 ml/100 g of weight for oral administration. Changes in the blood pressure over 6 hours were measured with a multi-purpose polygraph RM-85 made by NIHON KODEN Co., Ltd. MR was dissolved in 0.9% NaCl aqueous solution with 1 N-HCl, and the solution was neutralized for use.

[5] = tested on: rats; assay: Sub-acute toxicity: histopathological examination; format: in vivo, rat (SD (SPF)); settings: for Adrenal Hypertrophy: 5 rats
Description: Rats were sacrificed under anesthesia with ether.
Five samples were randomly selected from each group, and paraffin-sectionedpreparations of the organs were made by a routine method. The preparations were stained with hematoxyline-eosin stain and Luxol-fast blue (central nervous system only) and examined histopathologically.

[6] = tested on: rats; assay: in vivo; format: in vivo, rat (SD (SPF))
Procedure: (§2) All the rats were observed daily and general symptoms noted. Weight was measured daily, average food-intake once every three days, and average water-intake once every two days.

[7] = in vivo; format: in vivo, rat (SD (SPF)); settings: rat, in vivo; oral sub-acute, rats; read-out: ineffective dose
Procedure: as §2

[8] = tested on: blood pressure of anesthesized dogs; assay: Effect on blood pressure of anesthesized dogs; format: in vivo, dog (mongrel); settings: for average rate of blood pressure decrease: within 6 hours
Procedure: Changes in blood pressure were measured for 6 hours after the administration with a multi-purpose polygraph RM-85 made by NIHON KODEN.
The observed effect was a blood pressure decrease immediately after administration which came up nearly to plateau 2 hours after for 1 mg/kg, and 3 hours after for 3 mg/kg and 9 mg/kg, and in all cases remained on the plateau for 6 hours after that. The DB20 value obtained from the dose-response curve of FIG. 6 was 2 mg/kg.

[9] = tested on: blood pressure of SHR; assay: Antihypertensive effect by single oral administration, SHR, modified tail-cuff method; format: in vivo, rat (spontaneously hypertensive rats
Description: as §1

[10] = tested on: central nervous system; assay: Behavior-pharmacological studies, central nervous system depressing effect; set-up: species or system mouse (dd-strain); settings: mouse, in vivo
Description: Effects on central nervous system were studied as follows: […]

[11] = tested on: serotonin in Brain; settings: in vivo; cited from earlier work
[12] = Excretion into urine after oral administration; settings: rabbit, 10 mg/kg
Description: Urine was collected with urine bladder catheter for rabbits and metabolic cages for rats.

[13] = tested on: blood pressure of SHR; assay: Antihypertensive effect by repeated administration, SHR; format: in vivo, rat (spontaneously hypertensive rats
Procedure: The effect was determined through a direct cannulation by using male SHRs aged 25 to 30 weeks and weighing about 300 g. […] Blood pressures were measured twice a day, just before and 4 hours after the administration with blood pressure recorder 8002 made by W+W Electronic.

SMILES: COC(=O)[C@H]1[C@H]2C[C@@H]3c4[nH]c5cc(OC)ccc5c4CCN3C[C@H]2C[C@@H](O)[C@@H]1OC [MR, methylreserpate]
- average suppressive effect among four groups ([1]; P=0.05): no significant difference
- effect on spontaneous motor activity ([1]; from 3 hours after): tended to supress spontaneous motor activity
- dose excreted at 6 h [2]: 0.3 to 0.5%
- absorption in the digestive tract ([3]; in vivo): readily absorbed
- correlation of serum level pattern with pattern of blood pressure decrease ([3]; in vivo): high corralation
- absorption from digestive tracts compared with RSP and RCN ([3]; oral): more readily absorbed
- Tmax ([3]; serum, po, 10 mg/kg, after administration, read-out: time of maximum serum level): 1 to 2 h
- average rate of decrease in blood pressure ([4]; 2 mg/kg venous injection): 13%
- onset of blood pressure decrease ([4]; 4 mg/kg oral): 2 h
- blood pressure decrease ([4]; 4 mg/kg oral): 18%
- average rate of decrease in blood pressure ([4]; 4 mg/kg venous injection): 22.5%
- blood pressure decrease ([4]; 8 mg/kg oral): 26%
- average rate of decrease in blood pressure ([4]; 8 mg/kg venous injection): 28%
- blood pressure decrease ([4]; 16 mg/kg oral): 37%
- ED (20% blood pressure decrease) ([4]; iv, I.V.): 3.5 mg/kg
- ED (20% blood pressure decrease) ([4]; po, P.O.): 11.9 mg/kg
- antihypertensive effect compared with RCN ([4]; oral): almost the same
- antihypertensive effect ([4]; oral, summary for SHR and dogs): prolonged antihypertensive effect
- antihypertensive effect compared with RCN ([4]; venous injection): less intense
- Adrenal Hypertrophy ([5]; 25.0 mg/kg): - - - + -
- Adrenal Hypertrophy ([5]; 50.0 mg/kg): + + ++ + +
- Adrenal Hypertrophy ([5]; 100.0 mg/kg): + + + + +
- Lung Alveolar wall Congestion ([5]; 200.0 mg/kg, 5 dead rats): + ++ ++ ++ +++
- Lung Alveolar wall Pneumonia ([5]; 200.0 mg/kg, 5 dead rats): ++ ++ ++ + +
- Lung Alveolus Pneumonia ([5]; 200.0 mg/kg, 5 dead rats): - - - - -
- Lung Bronchus Bronchitis ([5]; 200.0 mg/kg, 5 dead rats): - - - - -
- Pancreas ([5]; 200.0 mg/kg, 5 dead rats): - - - - -
- Prostate ([5]; 200.0 mg/kg, 5 dead rats): - - - - /
- Salivary Mucous gl. ([5]; 200.0 mg/kg, 5 dead rats): - - - - -
- Salivary Serous gl. Atrophy ([5]; 200.0 mg/kg, 5 dead rats): - - - - -
- Spleen Atrophy ([5]; 200.0 mg/kg, 5 dead rats): - - - - -
- Spleen Congestion ([5]; 200.0 mg/kg, 5 dead rats): ++ ++ ++ + +
- Spleen Haemosiderosis ([5]; 200.0 mg/kg, 5 dead rats): + + + + +
- Stomach ([5]; 200.0 mg/kg, 5 dead rats): - - - - -
- Testis ([5]; 200.0 mg/kg, 5 dead rats): - - - - -
- Thyroid ([5]; 200.0 mg/kg, 5 dead rats): / - - - /
- Thyroid Atrophy ([5]; 200.0 mg/kg, 5 dead rats): +++ / +++ / /
- Urine bladder ([5]; 200.0 mg/kg, 5 dead rats): - - - - -
- Bone marrow Hypoplasia ([5]; rat, in vivo): - - - - -
- Central nerve ([5]; rat, in vivo): - - - - -
- Heart Endocardium ([5]; rat, in vivo): - - - - -
- Heart Epicardium ([5]; rat, in vivo): - - - - -
- Heart Myocardium Focal collapse ([5]; rat, in vivo): + - - + -
- Heart finding ([5]; rat, in vivo): focal collapse of heart muscles
- Hypophysis ([5]; rat, in vivo): - - - - -
- Intestine ([5]; rat, in vivo): - - - - -
- Kidney ([5]; rat, in vivo): - - - - -
- Liver Glisson's capsule Cell inf. ([5]; rat, in vivo): - + + + +
- Liver Kupffer cell Swelling ([5]; rat, in vivo): - - + + -
- Liver cell Degeneration ([5]; rat, in vivo): - - - - -
- Liver cell cord Cell inf. ([5]; rat, in vivo): - - + - -
- Liver cell cord Congestion ([5]; rat, in vivo): - - - - -
- Liver: Glisson's capsule or liver cell cords; Kupffer cells ([5]; rat, in vivo): lymphocytic cell infiltration in Glisson's capsule or liver cell cords, and swelling of Kupffer cells
- Lung Alveolar wall Congestion ([5]; rat, in vivo): - - - - -
- Lung Alveolar wall Pneumonia ([5]; rat, in vivo): - - - - -
- Lung Alveolus Pneumonia ([5]; rat, in vivo): - + - - -
- Lung Bronchus Bronchitis ([5]; rat, in vivo): - - - - +
- Lymph node ([5]; rat, in vivo): - - - - -
- Pancreas ([5]; rat, in vivo): - - - - -
- Prostate ([5]; rat, in vivo): - - - - -
- Salivary Mucous gl. ([5]; rat, in vivo): - - - - -
- Salivary Serous gl. Atrophy ([5]; rat, in vivo): - - - - -
- Spleen Atrophy ([5]; rat, in vivo): - - - - -
- Spleen Congestion ([5]; rat, in vivo): - - - - -
- Spleen Haemosiderosis ([5]; rat, in vivo): + + + + +
- Stomach ([5]; rat, in vivo): - - - - -
- Testis ([5]; rat, in vivo): - - - - -
- Thymus Atrophy ([5]; rat, in vivo): - - - - -
- Thyroid ([5]; rat, in vivo): - - - - -
- Urine bladder ([5]; rat, in vivo): - - - - -
- kidney histopathology ([5]; rat, in vivo): no pathological change
- other organs ([5]; rat, in vivo): No other pathological change
- pathological change of adrenal ([5]; rat, in vivo): reversible hypertrophy of cortex
- stomach mucous ([5]; rat, in vivo): no pathological change of stomach mucous
- side effects ([6]; only at the higher doses): blepharoptosis, leukopenia, increase of urine volume, atrophy of hematopoietic organs, cortial hypertrophy of adrenal and degeneration of liver cells (in dead rats)
- food-intake ([6]; rat, in vivo): No difference
- general symptoms ([6]; rat, in vivo): blepharoptosis, roughening of fur and dirtiness of public region
- general symptoms, additional ([6]; rat, in vivo): reduction of body weight, bloody cojunctival discharge, and a decrease of limb-skin temperature
- NOAEL [7]: 12.5 mg/kg
- time to plateau ([8]; 1 mg/kg intravenous): 2 h
- time to plateau ([8]; 3 mg/kg intravenous): 3 h
- average rate of blood pressure decrease ([8]; 3 mg/kg intravenous): 22.3%
- time to plateau ([8]; 9 mg/kg intravenous): 3 h
- average rate of blood pressure decrease ([8]; 9 mg/kg intravenous): 35.1%
- duration of plateau ([8]; 1, 3 and 9 mg/kg intravenous): 6 h
- ED (DB20) ([8]; Canis lupus familiaris, 6 h, intravenous, from dose-response curve of FIG. 6): 2 mg/kg
- maximum rate of blood pressure decrease ([9]; 6.25 mg/kg oral): 31.7%
- time to reach original blood pressure level ([9]; 6.25 mg/kg oral): 48 h
- time to reach original blood pressure level ([9]; 25 mg/kg oral): 72 h
- maximum rate of blood pressure decrease ([9]; 25.0 mg/kg oral): 42.5%
- time from which blood pressure gradually returned ([9]; after plateau, 6.25, 12.5 and 25 mg/kg oral): about 12 hours
- central nervous system depressing effect compared with RSP [10]: weaker than that of RSP
- serotonin in Brain [11]: no decrease of serotonin in Brain
- dose excreted at 48 h [12]: 10 to 15%
- blood pressure 24 hours after administration ([13]; oral, once a day over 2 weeks): had returned almost to the original level
- disappearance of effect compared with RSP ([13]; rat, in vivo): disappears more rapidly than that of RSP
- tolerance ([13]; repeated administration over 2 weeks): hardly giving tolerance
- long lasting effect ([13]; single and repeated administration to SHRs): no long lasting effect
